This note sets out measurements from patent US8569305B2, “Treatment of tuberous sclerosis associated neoplasms” (Emory University, priority 2002, dated 2013).

For experiment [1], the system named is Human SV7tert angiomyolipoma cells. Nature of the experiment: Inhibition of proliferation of SV7tert cells by tyrosine kinase inhibitors (cell count). In kind it is cell-based. The settings on record: for sensitivity / growth inhibition of SV7tert cells (in words): Human SV7tert cells in vitro; for N number of living cells after 72 h treatment: Human SV7tert cells; for No. of Cells after 72 hours: SV7tert cells. An excerpt: (§1) SV7tert (ATCC CRL 2461) is a cell line derived from a human angiomyolipoma through the sequential introduction of SV40 large T antigen and telomerase into primary human angiomyolipoma cells (Arbiser, J. L. et al. The generation and characterization of a cell line derived from a sporadic renal angiomyolipoma: use of telomerase to obtain stable populations of cells from benign neoplasms. Am.J.Pathol. 159, 483-491 (2001)). Angiomyolipomas are benign tumors of the kidney derived from putative perivascular epithelioid cells, that may undergo differentiation into cells with features of melanocytes, smooth muscle, and fat. Tsc2ang1 (ATCC CRL 2620) is a murine cell line derived from a cutaneous sarcoma arising in the extremity of a mouse heterozygous for tsc2. The sarcoma tissue was digested with collagenase and processed as described for SV7tert cells (Arbiser, J. L. et al.). Mice heterozygous for tsc2 develop cutaneous sarcomas at a frequency of approximately 10-15% (Onda, H., Lueck, A., Marks, P. W., Warren, H. B., & Kwiatkowski, D. J. Tsc2(+/−) mice develop tumors in multiple sites that express gelsolin and are influenced by genetic background. J.Clin Invest 104, 687-695 (1999)).
(§2) The following tyrosine kinase inhibitors were reconstituted as stock solutions in dimethyl sulfoxide (DMSO) immediately prior to use; AG9, AG17, AG18, AG30, AG82, AG99, AG112, AG370, AG490, AG879, AG957, AG1295, AG1296, AG1433, 2′thioadenosine, ST638, COMPOUND I, lavendustin C, oxindole 1, JAK3 inhibitors 1,2, and 3, as well as JAK3 inhibitor negative control. They can be obtained from Calbiochem (San Diego, Calif.). 10,000 cells per well in a 24 well dish were plated on day 1, and were treated with inhibitors in doses ranging from […] (LaMontagne Jr K. R. Jr et al. Inhibition of MAP kinase kinase causes morphological reversion and dissociation between soft agar growth and in vivo tumorigenesis in angiosarcoma cells; Am.J.Pathol. 157,1937-1945 (2000)). Cells were counted 72 hours after treatment with inhibitors using a Coulter Counter (Coulter, Hialeah,Fla.).

The subject of experiment [2] is Murine tsc2ang1 cells. As to the kind of experiment: Inhibition of proliferation of tsc2ang1 cells by tyrosine kinase inhibitors (cell count). In kind it is cell-based. Conditions: for N number of living cells after 72 h treatment: Murine tsc2ang1 cells.
Description: as §1, §2

The test system of experiment [3] is Akt phosphorylation in SV7tert cells. Nature of the experiment: Akt phosphorylation in SV7tert cells after treatment. The experiment is classed as cell-based, human. The settings on record: after 24 hours of treatment.

Entries after “also recorded” stand apart in the source; their conditions may differ.

As to `CC(C)(C)c1cc(C=C(C#N)C#N)cc(C(C)(C)C)c1O` [AG17, 3,5-di-tert-butyl-4-hydroxybenzylidene-malononitrile], the “sensitivity / growth inhibition of SV7tert cells (in words)” value in experiment [1] is reported as “highest sensitivity; also recorded: strongly inhibited”. Besides, the “N number of living cells after 72 h treatment” value (from here on “N number of living cells”) in experiment [1] (concentration 10 μg/ml) is given as 23 ×100; in experiment [1] (concentration 20 μg/ml), 22 ×100; in experiment [2] (concentration 10 μg/ml) it was 23 ×100; in experiment [2] (concentration 20 μg/ml), 23 ×100. In experiment [2] (Murine tsc2ang1 cells in vitro), the “sensitivity / growth inhibition of tsc2ang1 cells (in words)” value is given as “hypersensitivity; also recorded: strongly inhibited”.
Take `N#C/C(=C\c1ccc(O)c(O)c1)C(=O)O` [AG30]: the “N number of living cells” value in experiment [1] (concentration 10 μg/ml) is reported as 250 ×100; in experiment [1] (concentration 20 μg/ml), 270 ×100.
For the compound `COC(=O)c1ccc(NCc2cc(O)ccc2O)cc1` [AG957], the inhibition entry in experiment [1] (0.5 μg/ml, data not shown, cell line not stated in the sentence (SV7tert by context)) was “approximately 90%”. In addition, the “sensitivity / growth inhibition of SV7tert cells (in words)” value in experiment [1] was “highest sensitivity”.
With `COc1cc2ncnc(Nc3cccc(Cl)c3)c2cc1OC` [AG1478], the figures for the “N number of living cells” value in experiment [1] (concentration 10 μg/ml) and in experiment [1] (concentration 20 μg/ml) were 251 ×100 and 210 ×100, respectively.
For `Cc1ccc(NC(=O)c2ccc(CN3CCN(C)CC3)cc2)cc1Nc1nccc(-c2cccnc2)n1` [COMPOUND I, N-{5-[4-(4-methyl-piperazino-methyl)-benzoylamido]-2-methylphenyl}-4-(3-pyridyl)-2-pyrimidine-amine], the “sensitivity / growth inhibition of SV7tert cells (in words)” value in experiment [1] is recorded as “increased sensitivity to COMPOUND I compared to murine tsc2ang1”. For the same compound, the “No. of Cells after 72 hours” value in experiment [1] (2 μg/ml (control 22450)) was 16500; in experiment [1] (5 μg/ml (control 22450)), 10000; in experiment [1] (10 μg/ml (control 22450)) it was 6500. For the same compound, in experiment [3], the “Akt phosphorylation (in words)” value is listed as “downregulation of Akt phosphorylation”.
Consider `CCOc1cc(/C=C(\C#N)C(N)=O)cc(CSc2ccccc2)c1O` [ST638], for which the “N number of living cells” value is recorded as 250 ×100 in experiment [1] (concentration 10 μg/ml) and 205 ×100 in experiment [1] (concentration 20 μg/ml).
